According to patent US9499495B2, “Quinazolines and azaquinazolines as dual inhibitors of RAS/RAF/MEK/ERK and PI3K/AKT/PTEN/mTOR pathways” (Asana Biosciences, LLC, priority 2013, dated 2016):

Columns and labels:
B-RAFV600E = target: T1, B-RAFV600E (Homo sapiens, UniProt P15056, V600E); assay: B-RAFV600E radiometric assay; assay type: biochemical; conditions: read-out: Kinase assay B-Raf
T1 construct: purchased Millipore, USA 14-557
Outline: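 B-RAFV600E was preincubated 45 min at rt with compound in 1% DMSO. MEK-K97M (0.5 μg), 5 μM final cold ATP and [γ-32P]ATP were then added for 2 h at rt. Phosphorylated MEK was captured on P81 paper and scintillation-counted; IC50 came from a sigmoidal dose-response fit.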

pERK in A375 cells = assay: In Cell Western (ICW) assay, pERK in A375 cells; assay type: cell-based; conditions: Homo sapiens, A-375, 3 h treatment
Outline: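 RKO or A375 cells were exposed to compounds for 3 h at 37 °C, then fixed and stained in-cell with antibodies to pERK1/2 (T202/Y204), pS6RP or pAKT T308, followed by a Eu-labelled secondary. Time-resolved fluorescence (340/615 nm) was normalized to Hoechst, and IC50 values were fitted sigmoidally against DMSO as 0% inhibition.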

PI3Kα = target: T2, PI3Kα (Homo sapiens, UniProt P42336); assay: PI3 Kinase alpha TR-FRET assay; assay type: biochemical
T2 construct: made in house; host or cells: SF9 cells
Experimental: Compound inhibition for PI3Kα was determined in a homogeneous TR-FRET assay using a PI3Kα assay kit (Millipore, US, Catalog #33-016). The PI3 kinase catalyzes phosphorylation of […] (PIP2) to phosphatidylinositol 3,4,5-trisphosphate (PIP3) in the presence of ATP and Mg^2+. The PIP3 product is detected by displacement of biotin-PIP3 from an energy transfer complex consisting of Europium labeled anti-GST monoclonal antibody, a GST-tagged pleckstrin homology (PH) domain, biotinylated PIP3 and Streptavidin-Allophycocyanin (APC). Excitation of Europium in the complex results in an energy transfer to the APC and a fluorescence emission at 665 nm.
Compounds tested were dissolved in DMSO and directly distributed into 384-well plates at a volume of 0.5 μL. P110/P85a/PIP2 mixture (14.5 μL) was added to compound wells and incubated for 30 min at rt […]. P110/P85a was expressed in SF9 cells and purified in-house. 5 ng P110/P85a was used in the assay. The kinase reaction was started by the addition of ATP. The assay concentrations of both PIP2 and ATP were 40 μM. The reaction mixture was incubated for 30 min and was terminated by the addition of stop mix and detection mix. Fluorescence was measured at 615 and 665 nm upon excitation at 340 nm in a Victor V5 fluorometer (Perkin Elmer, US). The fluorescence emission ratio at 665 to 615 nm, proportional to the kinase activity, was plotted against the compound concentration to generate dose-response curves and IC50 values were determined.

A375 cells = assay: XTT assay for cell viability, A375 cells; assay type: cell-based; conditions: Homo sapiens, A-375, 72 h
Outline: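 RKO and A375 cells seeded at 1000-2000/well overnight, then exposed to compound for 72 h at 37° C., 5% CO2. XTT (1 mg/ml)/PMS (25 μM) added for 2-3 h; absorbance at 450 nm. Growth relative to DMSO control (100%); GI50 from sigmoidal dose-response fit.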

RKO cells = assay: XTT assay for cell viability, RKO cells; assay type: cell-based; conditions: Homo sapiens, 72 h
Experimental: Cell lines (A375 ATCC No. CRL-1619, A2058 ATCC No. CRL-11147 and RKO ATCC No. CRL-2577, American Type Culture Collection (ATCC), Manassas Va.) once attaining ˜80% confluency were trypsinized, centrifuged and resuspended in fresh media. Cells (1000-2000/per well) were seeded in 96-well plate and incubated over-night at 37° C. in a 5% CO2 incubator. Compound dilutions were prepared in 100% DMSO followed by dilutions in the respective media. The cells were treated with NCEs for 72 h at 37° C. in 5% CO2 incubator. After 72 h, freshly prepared XTT (1 mg/ml)/PMS (25 μM) solution was added, incubated for 2 to 3 h at 37° C. and the absorbance was measured at 450 nm using an ELISA plate reader. Keeping DMSO control as 100%, the effect of the compound to inhibit the cell proliferation was calculated and the GI50 values were determined using sigmoidal dose response curve fit in GraphPad Prism® v5 software.

mTOR kinase = target: T3, mTOR kinase (Homo sapiens, UniProt P42345); assay: mTOR kinase TR-FRET assay; assay type: biochemical
T3 construct: purchased Millipore, US
Outline: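 TR-FRET with ULight-p70 S6K (Thr 389) peptide (50 nM) and 20 μM ATP in 50 mM HEPES pH 7.5, 1 mM EGTA, 3 mM MnCl2; compound pre-incubated with enzyme before substrate addition, reaction at rt, EDTA-stopped. Eu anti-phospho antibody read 665/615 nm; IC50 from sigmoidal dose-response fit.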

T1 sequence (P15056 416-766 V600E limits assumed): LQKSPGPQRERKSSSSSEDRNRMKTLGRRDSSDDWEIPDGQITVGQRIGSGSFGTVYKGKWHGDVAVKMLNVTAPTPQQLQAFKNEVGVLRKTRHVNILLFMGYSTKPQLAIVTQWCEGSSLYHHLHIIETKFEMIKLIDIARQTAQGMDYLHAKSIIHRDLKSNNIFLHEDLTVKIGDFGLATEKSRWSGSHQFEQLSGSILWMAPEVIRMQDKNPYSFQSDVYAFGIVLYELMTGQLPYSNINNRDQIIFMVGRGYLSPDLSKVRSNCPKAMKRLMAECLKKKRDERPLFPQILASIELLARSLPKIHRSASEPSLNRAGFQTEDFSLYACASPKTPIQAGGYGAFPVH
T3 sequence (P42345 1362-2549 limits assumed): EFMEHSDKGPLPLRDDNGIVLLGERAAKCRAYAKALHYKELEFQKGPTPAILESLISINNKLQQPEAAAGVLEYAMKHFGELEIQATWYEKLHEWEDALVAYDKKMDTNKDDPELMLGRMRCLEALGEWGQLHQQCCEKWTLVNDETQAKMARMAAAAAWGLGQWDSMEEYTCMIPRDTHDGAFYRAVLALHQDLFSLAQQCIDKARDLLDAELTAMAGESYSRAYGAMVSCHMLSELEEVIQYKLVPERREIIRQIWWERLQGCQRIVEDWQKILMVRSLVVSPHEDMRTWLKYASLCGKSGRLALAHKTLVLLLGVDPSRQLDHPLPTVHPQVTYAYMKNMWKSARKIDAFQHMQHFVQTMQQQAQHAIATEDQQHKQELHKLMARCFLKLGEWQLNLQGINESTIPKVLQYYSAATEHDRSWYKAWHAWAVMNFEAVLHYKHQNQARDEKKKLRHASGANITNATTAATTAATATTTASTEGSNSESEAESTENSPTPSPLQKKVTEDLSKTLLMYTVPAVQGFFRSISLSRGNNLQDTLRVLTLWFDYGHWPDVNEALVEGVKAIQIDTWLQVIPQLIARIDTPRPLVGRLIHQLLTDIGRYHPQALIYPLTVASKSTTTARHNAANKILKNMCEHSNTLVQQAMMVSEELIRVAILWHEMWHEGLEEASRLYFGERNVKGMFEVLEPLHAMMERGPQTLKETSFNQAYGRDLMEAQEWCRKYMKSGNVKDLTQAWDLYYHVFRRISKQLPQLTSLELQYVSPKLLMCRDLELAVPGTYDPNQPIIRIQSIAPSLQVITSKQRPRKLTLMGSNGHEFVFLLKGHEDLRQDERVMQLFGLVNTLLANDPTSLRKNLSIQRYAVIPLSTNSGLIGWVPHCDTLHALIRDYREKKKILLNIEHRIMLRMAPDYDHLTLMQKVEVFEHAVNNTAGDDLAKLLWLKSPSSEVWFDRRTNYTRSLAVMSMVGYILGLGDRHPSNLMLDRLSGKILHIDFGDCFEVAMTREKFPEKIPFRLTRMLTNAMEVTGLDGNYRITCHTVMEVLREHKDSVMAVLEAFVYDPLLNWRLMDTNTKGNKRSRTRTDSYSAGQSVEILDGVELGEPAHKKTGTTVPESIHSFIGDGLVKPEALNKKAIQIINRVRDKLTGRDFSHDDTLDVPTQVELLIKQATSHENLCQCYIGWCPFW
T2 sequence (P42336 whole entry, species assumed): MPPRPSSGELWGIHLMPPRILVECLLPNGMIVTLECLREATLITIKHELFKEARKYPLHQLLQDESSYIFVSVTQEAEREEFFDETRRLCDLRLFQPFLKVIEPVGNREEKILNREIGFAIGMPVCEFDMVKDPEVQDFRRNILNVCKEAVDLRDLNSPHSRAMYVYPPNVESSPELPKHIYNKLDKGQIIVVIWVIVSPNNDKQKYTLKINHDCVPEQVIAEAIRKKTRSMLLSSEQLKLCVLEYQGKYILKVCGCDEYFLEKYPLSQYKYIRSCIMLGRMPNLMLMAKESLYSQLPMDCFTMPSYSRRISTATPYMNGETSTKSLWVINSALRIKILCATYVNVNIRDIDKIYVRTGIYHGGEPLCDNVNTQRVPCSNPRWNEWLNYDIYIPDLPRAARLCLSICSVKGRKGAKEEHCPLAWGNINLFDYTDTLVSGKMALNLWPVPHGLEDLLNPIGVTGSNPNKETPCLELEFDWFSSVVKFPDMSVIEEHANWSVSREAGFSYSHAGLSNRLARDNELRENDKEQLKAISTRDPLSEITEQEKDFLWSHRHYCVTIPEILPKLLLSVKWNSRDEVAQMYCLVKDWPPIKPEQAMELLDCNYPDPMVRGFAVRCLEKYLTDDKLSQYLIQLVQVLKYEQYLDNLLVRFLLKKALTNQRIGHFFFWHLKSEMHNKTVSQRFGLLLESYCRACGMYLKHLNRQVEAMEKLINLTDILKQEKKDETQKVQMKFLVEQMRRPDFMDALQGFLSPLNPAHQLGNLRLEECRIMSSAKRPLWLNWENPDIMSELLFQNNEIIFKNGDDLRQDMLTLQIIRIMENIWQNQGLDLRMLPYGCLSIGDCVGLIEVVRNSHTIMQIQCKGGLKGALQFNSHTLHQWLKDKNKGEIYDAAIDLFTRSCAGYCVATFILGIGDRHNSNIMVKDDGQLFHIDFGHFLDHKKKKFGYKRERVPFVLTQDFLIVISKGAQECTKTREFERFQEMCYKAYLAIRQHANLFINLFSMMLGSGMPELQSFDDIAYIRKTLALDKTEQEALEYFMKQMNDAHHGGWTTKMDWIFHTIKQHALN
T2 sequence (P27986 whole entry partner, species assumed): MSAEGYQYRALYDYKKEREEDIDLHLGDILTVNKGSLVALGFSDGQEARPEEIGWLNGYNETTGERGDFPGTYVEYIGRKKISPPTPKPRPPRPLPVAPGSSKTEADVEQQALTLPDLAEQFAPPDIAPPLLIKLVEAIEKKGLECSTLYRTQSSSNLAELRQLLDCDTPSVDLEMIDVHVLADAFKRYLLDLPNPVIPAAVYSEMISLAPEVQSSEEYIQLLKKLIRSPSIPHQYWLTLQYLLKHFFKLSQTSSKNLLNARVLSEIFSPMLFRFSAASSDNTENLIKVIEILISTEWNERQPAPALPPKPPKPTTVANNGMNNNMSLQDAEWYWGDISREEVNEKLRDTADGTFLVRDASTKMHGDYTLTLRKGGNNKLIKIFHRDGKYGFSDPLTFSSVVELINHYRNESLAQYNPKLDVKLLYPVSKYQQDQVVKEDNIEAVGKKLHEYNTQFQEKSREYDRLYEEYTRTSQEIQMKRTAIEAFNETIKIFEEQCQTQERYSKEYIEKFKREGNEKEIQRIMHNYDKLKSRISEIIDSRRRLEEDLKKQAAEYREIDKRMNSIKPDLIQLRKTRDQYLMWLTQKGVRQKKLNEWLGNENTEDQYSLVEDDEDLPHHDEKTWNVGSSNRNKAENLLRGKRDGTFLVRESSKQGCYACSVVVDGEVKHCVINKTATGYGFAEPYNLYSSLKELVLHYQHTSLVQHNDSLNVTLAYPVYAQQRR

## CCCS(=O)(=O)Nc1cccc(-c2cc(OC)c3nc(-c4cccc5[nH]ncc45)nc(N4CCOCC4)c3c2)c1F [Example 2, N-(3-(2-(1H-indazol-4-yl)-8-methoxy-4-morpholinoquinazolin-6-yl)-2-fluorophenyl) propane-1-sulfonamide]
B-RAFV600E
  IC50: 0.001 to 0.1 µM
pERK in A375 cells
  IC50: 0.1 to 1 µM
PI3Kα
  IC50: 0.1 to 1 µM
A375 cells
  IC50: 0.1 to 1 µM

## CCCS(=O)(=O)Nc1cccc(-c2cc(OC)c3nc(-c4ccc(NCCN)nc4)nc(N4CCOCC4)c3c2)c1F [Example 3]
B-RAFV600E
  IC50: 0.001 to 0.1 µM
pERK in A375 cells
  IC50: 0.001 to 0.1 µM
PI3Kα
  IC50: 0.1 to 1 µM
A375 cells
  IC50: 1 to 10 µM

## CCCS(=O)(=O)Nc1cccc(-c2cc(C)c3nc(-c4ccc(N)nc4)nc(N4CCOCC4)c3c2)c1F [Example 8, N-(3-(2-(6-aminopyridin-3-yl)-8-methyl-4-morpholinoquinazolin-6-yl)-2-fluorophenyl)propane-1-sulfonamide]
B-RAFV600E
  IC50: 0.1 to 1 µM
RKO cells
  IC50: 0.1 to 1 µM
pERK in A375 cells
  IC50: 0.1 to 1 µM
PI3Kα
  IC50: 0.1 to 1 µM
A375 cells
  IC50: 0.1 to 1 µM

## CCCS(=O)(=O)Nc1cccc(-c2cc(OC)c3nc(-c4cnc(N)c(C)c4)nc(N4CCOCC4)c3c2)c1F [Example 26, N-(3-(2-(6-amino-5-methylpyridin-3-yl)-8-methoxy-4-morpholinoquinazolin-6-yl)-2-fluorophenyl)propane-1-sulfonamide]
B-RAFV600E
  IC50: 0.1 to 1 µM
pERK in A375 cells
  IC50: 0.1 to 1 µM
PI3Kα
  IC50: 0.1 to 1 µM
A375 cells
  IC50: 0.1 to 1 µM

## COc1cc(-c2cccc(NS(=O)(=O)CCCF)c2F)cc2c(N3CCOCC3)nc(-c3cnc(N)cc3C(F)(F)F)nc12 [Example 36, N-(3-(2-(6-amino-4-(trifluoromethyl)pyridin-3-yl)-8-methoxy-4-morpholinoquinazolin-6-yl)-2-fluorophenyl)-3-fluoropropane-1-sulfonamide]
B-RAFV600E
  IC50: 0.001 to 0.1 µM
RKO cells
  IC50: 1 to 10 µM
pERK in A375 cells
  IC50: 0.001 to 0.1 µM
PI3Kα
  IC50: 0.1 to 1 µM
A375 cells
  IC50: 0.1 to 1 µM

## COc1cc(-c2cccc(NS(=O)(=O)CCCF)c2F)cc2c(N3CCOCC3)nc(-c3cccc4[nH]ncc34)nc12 [Example 37, N-(3-(2-(1H-indazol-4-yl)-8-methoxy-4-morpholinoquinazolin-6-yl)-2-fluorophenyl)-3-fluoropropane-1-sulfonamide]
B-RAFV600E
  IC50: 0.001 to 0.1 µM
RKO cells
  IC50: 1 to 10 µM
pERK in A375 cells
  IC50: 0.001 to 0.1 µM
PI3Kα
  IC50: 0.1 to 1 µM
A375 cells
  IC50: 0.1 to 1 µM

## CNc1ccc(-c2nc(N3CCOCC3)c3cc(-c4cccc(NS(=O)(=O)CCCF)c4F)cc(OC)c3n2)cn1 [Example 50, 3-fluoro-N-(2-fluoro-3-(8-methoxy-2-(6-(methylamino)pyridin-3-yl)-4-morpholinoquinazolin-6-yl)phenyl)propane-1-sulfonamide]
B-RAFV600E
  IC50: 0.001 to 0.1 µM
RKO cells
  IC50: 0.1 to 1 µM
mTOR kinase
  IC50: 0.001 to 0.1 µM
pERK in A375 cells
  IC50: 0.001 to 0.1 µM
A375 cells
  IC50: 0.001 to 0.1 µM

## CNc1ncc(-c2nc(N3CCOCC3)c3cc(-c4cccc(NS(=O)(=O)CCCF)c4F)cc(OC)c3n2)cn1 [Example 51, 3-fluoro-N-(2-fluoro-3-(8-methoxy-2-(2-(methylamino)pyrimidin-5-yl)-4-morphoIinoquinazolin-6-yl)phenyl)propane-1-sulfonamide]
B-RAFV600E
  IC50: 0.001 to 0.1 µM
RKO cells
  IC50: 0.1 to 1 µM
mTOR kinase
  IC50: 0.001 to 0.1 µM
pERK in A375 cells
  IC50: 0.001 to 0.1 µM
A375 cells
  IC50: 0.001 to 0.1 µM

## Nc1ccc(-c2nc(N3CCOCC3)c3cc(-c4cccc(NS(=O)(=O)CCCF)c4F)cc(OC4CCCC4)c3n2)cn1 [Example 53, N-(3-(2-(6-aminopyridin-3-yl)-8-(cyclopentyloxy)-4-morpholinoquinazolin-6-yl)-2-fluorophenyl)-3-fluoropropane-1-sulfonamide]
B-RAFV600E
  IC50: 0.001 to 0.1 µM
RKO cells
  IC50: 0.1 to 1 µM
mTOR kinase
  IC50: 0.001 to 0.1 µM
pERK in A375 cells
  IC50: 0.001 to 0.1 µM
A375 cells
  IC50: 0.001 to 0.1 µM

## C[C@@H]1COCCN1c1nc(-c2ccc(N)nc2)nc2c(OC3CCCC3)cc(-c3cccc(NS(=O)(=O)CCCF)c3F)cc12 [Example 62, (R)-N-(3-(2-(6-aminopyridin-3-yl)-8-(cyclopentyloxy)-4-(3-methylmorpholino)quinazolin-6-yl)-2-fluorophenyl)-3-fluoropropane-1-sulfonamide]
B-RAFV600E
  IC50: 0.001 to 0.1 µM
RKO cells
  IC50: 0.1 to 1 µM
mTOR kinase
  IC50: 0.001 to 0.1 µM
pERK in A375 cells
  IC50: 0.001 to 0.1 µM
A375 cells
  IC50: 0.001 to 0.1 µM

## COc1cc(-c2c(F)ccc(NS(=O)(=O)CCCF)c2F)cc2c(N3CCOCC3)nc(-c3cccc4[nH]ncc34)nc12 [Example 81, N-(3-(2-(1H-indazol-4-yl)-8-methoxy-4-morpholinoquinazolin-6-yl)-2,4-difluorophenyl)-3-fluoropropane-1-sulfonamide]
B-RAFV600E
  IC50: 0.001 to 0.1 µM
pERK in A375 cells
  IC50: 0.001 to 0.1 µM
PI3Kα
  IC50: 0.1 to 1 µM
A375 cells
  IC50: 0.1 to 1 µM

## O=S(=O)(CCCF)Nc1cccc(-c2ccc3nc(-c4cnc(NCCCO)nc4)nc(N4CCOCC4)c3n2)c1F [Example 110, 3-fluoro-N-(2-fluoro-3-(2-(2-((3-hydroxypropyl)amino)pyrimidin-5-yl)-4-morpholinopyrido[3,2-d]pyrimidin-6-yl)phenyl)propane-1-sulfonamide]
B-RAFV600E
  IC50: 0.001 to 0.1 µM
pERK in A375 cells
  IC50: 0.001 to 0.1 µM
PI3Kα
  IC50: 0.1 to 1 µM
A375 cells
  IC50: 1 to 10 µM

## CC(C)Nc1ccc(-c2nc(N3CCOCC3)c3nc(-c4cccc(NS(=O)(=O)CCCF)c4F)ccc3n2)cn1 [Example 114, 3-fluoro-N-(2-fluoro-3-(2-(6-(isopropylamino)pyridin-3-yl)-4-morpholinopyrido[3,2-d]pyrimidin-6-yl)phenyl)propane-1-sulfonamide]
B-RAFV600E
  IC50: 0.001 to 0.1 µM
RKO cells
  IC50: 0.1 to 1 µM
mTOR kinase
  IC50: 0.1 to 1 µM
pERK in A375 cells
  IC50: 0.001 to 0.1 µM
A375 cells
  IC50: 0.1 to 1 µM

## Cc1cc(-c2cccc(NS(=O)(=O)CCCF)c2F)cc2c(N3CCOCC3)nc(-c3ccc(N)nc3)nc12 [Example 117, N-(3-(2-(6-aminopyridin-3-yl)-8-methyl-4-morpholinoquinazolin-6-yl)-2-fluorophenyl)-3-fluoropropane-1-sulfonamide]
B-RAFV600E
  IC50: 0.001 to 0.1 µM
RKO cells
  IC50: 1 to 10 µM
mTOR kinase
  IC50: 0.001 to 0.1 µM
pERK in A375 cells
  IC50: 0.001 to 0.1 µM
A375 cells
  IC50: 0.1 to 1 µM

## Cc1cc(-c2cccc(NS(=O)(=O)CCCF)c2F)cc2c(N3CCOCC3)nc(-c3cccc4[nH]ncc34)nc12 [Example 118, N-(3-(2-(1H-indazol-4-yl)-8-methyl-4-morpholinoquinazolin-6-yl)-2-fluorophenyl)-3-fluoropropane-1-sulfonamide]
B-RAFV600E
  IC50: 0.001 to 0.1 µM
RKO cells
  IC50: 1 to 10 µM
mTOR kinase
  IC50: 0.1 to 1 µM
A375 cells
  IC50: 0.1 to 1 µM
